Measurements taken from US20070128217A1 (priority 2003, published 2007).

What was measured:
[1] = system: rabbit serum obtained by immunizing a rabbit with the SARS-CoV strain Frankfurt 1; assay type: binding; design: Binding of a rabbit serum to linear peptides / Binding of a rabbit serum to looped peptides / Rabbit serum linear peptides / Rabbit serum looped peptides / Binding of a rabbit serum to linear peptides of protein N of SARS-CoV Urbani (Rabbit serum linear peptides) / Binding of a rabbit serum to looped/cyclic peptides of protein N of SARS-CoV Urbani (Rabbit serum looped peptides): unit not given here
[2] = system: control sera (pooled serum of ten healthy LUMC hospital workers; commercial negative donor pooled serum from the Dutch bloodbank); assay type: binding, human; design: Binding of Control serum LUMC to linear peptides / Binding of Control serum Blood-bank to linear peptides / Binding of Control serum LUMC to looped peptides / Binding of Control Serum Blood-Bank to Looped peptides / Binding of Control serum LUMC to linear peptides of the protein M of SARS-CoV Urbani / Binding of Control serum Blood-bank to linear peptides of the protein M of SARS-CoV Urbani / Binding of Control serum LUMC to looped peptides of the protein M of SARS-CoV Urbani / Binding of Control Serum Blood-Bank to Looped peptides of the protein M of SARS-CoV Urbani: unit not given here
[3] = system: antibodies in sera from SARS patients (sera 1a, 1b, 2, 6, 37, 62, London, SARS-yellow, SARS-green); assay type: binding, human; design: Binding of serum 6 to linear peptides of protein X1 of SARS-CoV Urbani / Binding of serum 37 to linear peptides of protein X1 of SARS-CoV Urbani / Binding of serum 6 to looped/cyclic peptide (PEPSCAN-ELISA) / Binding of serum 37 to looped/cyclic peptide (PEPSCAN-ELISA) / Binding of serum 37 to looped/cyclic peptides of protein X1 of SARS-CoV Urbani / Binding of serum 6 to linear peptides of protein X2 / Binding of serum 37 to linear peptides of protein X2 / Binding of serum 37 to looped/cyclic peptides of protein X2 of SARS-CoV Urbani / Binding of serum 6 to linear peptides of protein M of SARS-CoV Urbani / Binding of serum 37 to linear peptides of protein M of SARS-CoV Urbani / Binding of serum 6 to looped/cyclic peptides of protein M of SARS-CoV Urbani / Binding of serum 37 to looped/cyclic peptides of protein M of SARS-CoV Urbani / Binding of serum 6 to linear peptides of protein X3 of SARS-CoV Urbani / Binding of serum 37 to linear peptides of protein X3 of SARS-CoV Urbani / Binding of serum 37 to looped/cyclic peptides of protein X3 of SARS-CoV Urbani / Binding of serum 6 to linear peptides of protein X4 of SARS-CoV Urbani / Binding of serum 37 to linear peptides of protein X4 of SARS-CoV Urbani / Binding of serum 37 to looped/cyclic peptides of protein X4 of SARS-CoV Urbani / Binding of serum 6 to linear peptides of protein X5 of SARS-CoV Urbani / Binding of serum 37 to linear peptides of protein X5 of SARS-CoV Urbani / Binding of serum 37 to looped/cyclic peptides of protein X5 of SARS-CoV Urbani / Binding of serum 6 to linear peptides of protein N of SARS-CoV Urbani / Binding of serum 37 to linear peptides of protein N of SARS-CoV Urbani / Binding of serum 6 to linear peptide (PEPSCAN-ELISA) / Binding of serum 1a to looped/cyclic peptides of protein N of SARS-CoV Urbani / Binding of serum 1b to looped/cyclic peptides of protein N of SARS-CoV Urbani / Binding of serum 2 to looped/cyclic peptides of protein N of SARS-CoV Urbani / Binding of serum 6 to looped/cyclic peptides of protein N of SARS-CoV Urbani / Binding of serum 37 to looped/cyclic peptides of protein N of SARS-CoV Urbani / Binding of serum 62 to looped/cyclic peptides of protein N of SARS-CoV Urbani / Binding of serum London to looped/cyclic peptides of protein N of SARS-CoV Urbani / Binding of serum SARS-green to looped/cyclic peptides of protein N of SARS-CoV Urbani: unit not given here
[4] = system: recombinant human anti-SARS-CoV antibody 03-018; assay type: binding; design: Binding of antibody 03-018 to linear peptides of the N protein of SARS-CoV Urbani / Binding of antibody 03-018 to looped/cyclic peptides of the N protein of SARS-CoV Urbani: unit not given here

Row | Sequence | Binding of a rabbit serum to linear peptides of protein N of SARS-CoV Urbani (Rabbit serum linear peptides) [1] | Binding of a rabbit serum to looped/cyclic peptides of protein N of SARS-CoV Urbani (Rabbit serum looped peptides) [1] | Binding of Control Serum Blood-Bank to Looped peptides [2] | Binding of Control serum Blood-bank to linear peptides [2] | Binding of Control serum LUMC to linear peptides [2] | Binding of Control serum LUMC to looped peptides [2] | Binding of serum 1a to linear peptides of protein N of SARS-CoV Urbani [3] | Binding of serum 1a to looped/cyclic peptides of protein N of SARS-CoV Urbani [3] | Binding of serum 1b to linear peptides of protein N of SARS-CoV Urbani [3] | Binding of serum 1b to looped/cyclic peptides of protein N of SARS-CoV Urbani [3] | Binding of serum 2 to linear peptides of protein N of SARS-CoV Urbani [3] | Binding of serum 2 to looped/cyclic peptides of protein N of SARS-CoV Urbani [3] | Binding of serum 6 to looped/cyclic peptides of protein N of SARS-CoV Urbani [3] | Binding of serum 37 to looped/cyclic peptides of protein N of SARS-CoV Urbani [3] | Binding of serum 62 to looped/cyclic peptides of protein N of SARS-CoV Urbani [3] | Binding of serum London to looped/cyclic peptides of protein N of SARS-CoV Urbani [3] | Binding of serum SARS-green to looped/cyclic peptides of protein N of SARS-CoV Urbani [3] | Binding of serum SARS-yellow to looped/cyclic peptides of protein N of SARS-CoV Urbani [3] | Binding of antibody 03-018 to linear peptides of the N protein of SARS-CoV Urbani [4] | Binding of antibody 03-018 to looped/cyclic peptides of the N protein of SARS-CoV Urbani [4] | other results
1 | ARPKQRRPQGLPNNT | 0.2 | 0.4 | 0.6 | 0.6 | 0.6 | 0.5 | 0.2 | 0.2 | 0.1 | 0.1 | 0.3 | 0.4 | 0.2 | 0.5 | 0.5 | 0.3 | 0.2 | 0.2 | 0.1 | 0.2 | Binding of serum 6 to linear peptides of protein N of SARS-CoV Urbani [3]: 0.2; Binding of serum 37 to linear peptides of protein N of SARS-CoV Urbani [3]: 0.7; Binding of serum 62 to linear peptides of protein N of SARS-CoV Urbani [3]: 0.6; Binding of serum London to linear peptides of protein N of SARS-CoV Urbani [3]: 0.5; Binding of serum SARS-green to linear peptides of protein N of SARS-CoV Urbani [3]: 0.5; Binding of serum SARS-yellow to linear peptides of protein N of SARS-CoV Urbani [3]: 0.5
2 | FPRGQGVPINTNSGP | 0.2 | 0.2 | 0.6 | 0.8 | 0.7 | 0.5 | 0.2 | 0.3 | 0.1 | 0.2 | 0.3 | 0.4 | 0.2 | 0.5 | 0.4 | 0.4 | 0.4 | 0.4 | 0.1 | 0.2 | Binding of serum 6 to linear peptides of protein N of SARS-CoV Urbani [3]: 0.2; Binding of serum 37 to linear peptides of protein N of SARS-CoV Urbani [3]: 0.7; Binding of serum 62 to linear peptides of protein N of SARS-CoV Urbani [3]: 0.6; Binding of serum London to linear peptides of protein N of SARS-CoV Urbani [3]: 0.5; Binding of serum SARS-green to linear peptides of protein N of SARS-CoV Urbani [3]: 0.3; Binding of serum SARS-yellow to linear peptides of protein N of SARS-CoV Urbani [3]: 0.6
3 | TRRVRGGDGKMKELS | 0.2 | 0.3 | 0.5 | 0.7 | 0.8 | 0.5 | 0.3 | 0.2 | 0.2 | 0.1 | 0.3 | 0.2 | 0.2 | 0.4 | 0.3 | 0.3 | 0.0 | 0.2 | 0.1 | 0.2 | Binding of serum 6 to linear peptides of protein N of SARS-CoV Urbani [3]: 0.3; Binding of serum 37 to linear peptides of protein N of SARS-CoV Urbani [3]: 0.7; Binding of serum 62 to linear peptides of protein N of SARS-CoV Urbani [3]: 0.8; Binding of serum London to linear peptides of protein N of SARS-CoV Urbani [3]: 0.5; Binding of serum SARS-green to linear peptides of protein N of SARS-CoV Urbani [3]: 0.3; Binding of serum SARS-yellow to linear peptides of protein N of SARS-CoV Urbani [3]: 0.7
4 | DRLNQLESKVSGKGQ | 0.3 | 0.4 | 0.6 | 0.9 | 0.7 | 0.6 |  | 0.4 |  | 0.3 |  | 0.6 | 0.4 | 0.6 | 0.4 | 0.4 | 0.4 | 0.8 | 0.1 | 0.3 | Binding of serum 1a to linear peptide (PEPSCAN-ELISA) [3]: 0.3; Binding of serum 1b to linear peptide (PEPSCAN-ELISA) [3]: 0.1; Binding of serum 2 to linear peptide (PEPSCAN-ELISA) [3]: 0.3; Binding of serum 6 to linear peptide (PEPSCAN-ELISA) [3]: 0.2; Binding of serum 37 to linear peptide (PEPSCAN-ELISA) [3]: 0.8; Binding of serum 62 to linear peptide (PEPSCAN-ELISA) [3]: 0.7; Binding of serum London to linear peptide (PEPSCAN-ELISA) [3]: 0.5; Binding of serum SARS-green to linear peptide (PEPSCAN-ELISA) [3]: 0.5; Binding of serum SARS-yellow to linear peptide (PEPSCAN-ELISA) [3]: 0.7
5 | QQGQTVTKKSAAEAS | 0.2 | 0.0 | 0.5 | 0.8 | 0.7 | 0.5 |  | 0.5 |  | 0.4 |  | 0.5 | 0.3 | 0.6 | 0.5 | 0.4 | 0.8 | 0.5 | 0.1 | 0.2 | Recognition of the peptide by sera of SARS-CoV infected individuals, and form (linear, looped/cyclic) in which it is recognized [3]: recognized in linear form
